Results as given in patent US11337990B2, “Human milk oligosaccharides to promote growth of beneficial bacteria” (ABBOTT LABORATORIES, priority 2010, dated 2022).
Entries after “also recorded” stand apart in the source; their conditions may differ.

Columns and labels:
infant fecal bacteria = assay: In vitro substrate fermentation model with infant feces (pH, SCFA, lactate); assay type: cell-based, human infant
B. infantis M-63 = assay: Bacterial growth assay (OD600); assay type: cell-based, Bifidobacterium infantis; details: 1% carbohydrate in sMRS+cysteine
Method: (§1) Coy Laboratory Products, Grass Lake, Mich.). Subsequently, the cultures are passed twice on a semi-synthetic MRS medium ([…] which is supplemented with 1% (w/v) filter-sterilized glucose as the sole carbohydrate source. […] For bifidobacteria strains, the same procedure is followed except all media are supplemented with 0.5 g/l L-cysteine/HCl. [table] After the 2nd pass in sMRS+glucose+cysteine, the cultures are washed once with 10 mL of sterile sMRS+cysteine (no carbohydrate), resuspended in 10 ml of sterile sMRS+cysteine (no carbohydrate) and then used as a 1% inoculum. The carbohydrates are sterilized with a 0.22 micron filter and used at a 1% final concentration. Cell growth is performed in 250 μL of sMRS+cysteine covered with 50 μL of mineral oil in a Bioscreen 100-well Honeycomb plate. […] The plate reader is operated in discontinuous mode, with absorbance readings performed in 30-minute intervals, and preceded by 30-second shaking intervals at maximum speed. Controls consist of inoculated medium lacking carbohydrate. […] All three plates include a positive control (glucose) and negative control (no carbohydrate). The OD600 data for each carbohydrate is corrected by subtracting the OD600 of the basal media (sMRS)+cysteine from the sample plate for each probiotic. Maximum OD is determined by inspection of the corrected growth data. OD is determined by subtracting the initial corrected OD (time point 0) from the maximum corrected OD. Samples are grown in biologically independent triplicates and the resulting growth kinetic data are expressed as the mean of these replicates. For the growth curve plots, OD600 vs. time is first plotted for the bacteria grown on medium lacking carbohydrate (sMRS). For all other carbohydrates, the OD600 data is corrected by subtracting the OD600 of sMRS.

B. infantis ATCC 15697 = assay: Bacterial growth assay (OD600); assay type: cell-based, Bifidobacterium infantis; details: 1% carbohydrate in sMRS+cysteine
Method: as §1

Caco-2 cells = assay: Alkaline phosphatase activity per milligram of protein (cell differentiation), Caco-2; assay type: cell-based, human; details: Example 48: LNnT or 2′FL 20, 200, 2000 mg/L; 6′SL 40, 400, 4000 mg/mL; 72 hours
Method: In a second experiment, Caco-2 cells, which model more mature epithelial cells of the small intestine, are incubated in a humidified atmosphere of 5% carbon dioxide at 37° C. in the presence of LNnT or 2′FL at concentrations of 0 mg/L (“0”), 20 mg/L (“20”), 200 mg/L (“200”), and 2000 mg/L (“2000”) or in the presence of 6′SL at concentrations of 0 mg/mL (“0”), 40 mg/mL (“40”), 400 mg/mL (“400”), and 4000 mg/mL (“4000”) for 72 hours. The culture medium utilized is Dulbecco's Modified Eagle Medium (Life Technologies, Foster City Calif.) supplemented with 10% fetal calf serum and 2 mM glutamine. The controls (“energy”) consist of 91.5 mg lactose and 64.2 mg N-acetyllactosamine/L for LNnT; 133 mg lactose and 67 mg fucose/L for 2′FL; and 195 mg lactose and 205 mg sialic acid/L for 6′SL. The impact of the LNnT, 2′FL, and 6′SL at various levels and the control on Caco-2 cell proliferation is measured using a conventional BrdU assay, which measures the number of cells that have recently synthesized DNA. […] Additionally, the impact of LNnT, 2′FL, and 6′SL at various levels and the controls on the alkaline phosphatase activity per milligram of protein for Caco-2 cells, which is an indication of cell differentiation, is measured.

HT-29 cells = assay: Alkaline phosphatase activity per milligram of protein (cell differentiation), HT-29; assay type: cell-based, human; details: Example 48: LNnT or 2′FL 20, 200, 2000 mg/L; 6′SL 40, 400; 72 hours
Method: In a first experiment, HT-29 cells, which model the immature epithelial cells of the small intestine, are incubated in a humidified atmosphere of 5% carbon dioxide at 37° C. in the presence of LNnT or 2′FL at concentrations of 0 mg/L (“0”), 20 mg/L (“20”), 200 mg/L (“200”), and 2000 mg/L (“2000”) or in the presence of 6′SL at concentrations of 0 mg/mL (“0”), 40 mg/mL (“40”), 400 mg/mL (“400”), and 4000 mg/mL (“4000”) for 72 hours. The culture medium utilized is Dulbecco's Modified Eagle Medium (Life Technologies, Foster City Calif.) supplemented with 10% fetal calf serum and 2 mM glutamine. The controls (“energy”) consist of 91.5 mg lactose and 64.2 mg N-acetyllactosamine/L for LNnT; 133 mg lactose and 67 mg fucose/L for 2′FL; and 195 mg lactose and 205 mg/L sialic acid for 6′SL. The impact of the LNnT, 2′FL, and 6′SL at various levels and the controls on HT-29 cell proliferation is measured using a conventional BrdU assay, which measures the number of cells that have recently synthesized DNA. […] Additionally, the impact of LNnT, 2′FL, and 6′SL at various levels and the controls on the alkaline phosphatase activity per milligram of protein for HT-29 cells, which is an indicator of cell differentiation, is measured.

CC(=O)N[C@H]1[C@H](O[C@H]2[C@@H](O)[C@@H](CO)O[C@@H](O[C@H]3[C@H](O)[C@@H](O)C(O)O[C@@H]3CO)[C@@H]2O)O[C@H](CO)[C@@H](O[C@@H]2O[C@H](CO)[C@H](O)[C@H](O)[C@H]2O)[C@@H]1O (mixture of isomers) [LNnT, Lacto-N-neotetraose]
fermentation rate (infant fecal bacteria): about 4,488 μg/g of dry matter/hour | acetate production (infant fecal bacteria; 3 and 6 h): produce similar amounts of acetate | acetate production (infant fecal bacteria; 6 h): less acetate than GOS | acetate production, formula fed versus breast fed infants (infant fecal bacteria; 12 h): greater | lactate production (infant fecal bacteria; 12 h): greater (P<0.0001) compared to gum Arabic | total SCFA production, formula fed versus breast fed infants (infant fecal bacteria; after 3, 6 and 12 h of fermentation): greater (P=0.01) fermentation by formula fed infants | pH change from baseline (infant fecal bacteria; at 3, 6 and 12 h after inoculation): greatest | fermentability by infant fecal bacteria (infant fecal bacteria; overall): highly fermentable; also recorded: readily fermented | propionate production (infant fecal bacteria; overall): greater (P<0.0001) propionate production than gum Arabic | relative rate of fermentation (infant fecal bacteria; overall): fermented more rapidly than 6′SL; also recorded: fermentation rates similar to GOS | lactate production (infant fecal bacteria; time not stated (between the 3 h and 12 h statements)): greater (P<0.0001) | lactate accumulation (infant fecal bacteria; up to 12 h): significant amounts of lactate | growth / ability to ferment (OD600) (B. infantis M-63): grow well | growth / ability to ferment (OD600) (B. infantis ATCC 15697): grow well | alkaline phosphatase activity per milligram of protein (cell differentiation) (Caco-2 cells): trend toward an increase | alkaline phosphatase activity per milligram of protein (cell differentiation) (HT-29 cells): trend toward an increase
